From article PMC6864136 (Saudi Journal of Biological Sciences, 2018)
Values after ≈ are worked out from the molar mass of the structure shown. Values joined by “and” are separate entries in the source; they are usually repeats but may differ in a detail not shown here. Identical values can stand only once.

What follows are compounds tested on Spodoptera frugiperda larvae (assay: whole plant or invertebrate). Details: S. frugiperda larvae, no-choice; 95% confidence limits in parentheses.
Type: in vivo

Compound | Antifeedant activity CE50 (µg/mL) | Antifeedant activity CE50
CC1(C)C(C=C(Cl)Cl)C1C(=O)OC(C#N)c1cccc(Oc2ccccc2)c1 (centres unmarked) [Cypermethrin, cypermethrin, reference compound] | 23.83 (22.55–25.15) µg/mL | 
Isoeugenol [Compound 8] | 158.5 (149.3–167.8) µg/mL | 158.51 µg/mL and < 210 µg/mL
C=CCc1ccc(O)c(OC)c1 [Compound 1, Eugenol] | 187.7 (176.6–198.9) µg/mL | < 210 µg/mL

Same assay, conditions: Spodoptera frugiperda, in Zea mays, read-out: Antifeedant activity CE50 (µg/mL), S. frugiperda larvae, no-choice; 95% confidence limits in parentheses

Compound | EC50
CC1(C)C(C=C(Cl)Cl)C1C(=O)OC(C#N)c1cccc(Oc2ccccc2)c1 (centres unmarked) [Cypermethrin, cypermethrin, reference compound] | 23.9 µg/mL (≈ 57.3 µM)
COc1cc(C2OCOCC2C)ccc1O (centres unmarked) [Compound 14, 2-methoxy-4-(5-methyl-1,3-dioxan-4-yl)-phenol] | 1800 µg/mL (≈ 8010 µM)
C/C=C/c1ccc(OC)c(OC)c1 [Compound 9, O-methylisoeugenol] | 536 µg/mL (≈ 3010 µM)
CCCc1ccc(O)c(OC)c1 [Compound 13, 2-methoxy-4-propylphenol] | 319 µg/mL (≈ 1920 µM)
C=CCc1ccc(O)c(OC)c1 [Compound 1, Eugenol] | 188 µg/mL (≈ 1140 µM)
C=CCc1ccc(OC)c(OC)c1 [Compound 2, O-methyleugenol] | 504 µg/mL (≈ 2830 µM)
C=CCc1ccc(OC(=O)c2ccc([N+](=O)[O-])cc2)c(OC)c1 [Compound 7, O-(4-nitrobenzoyl)eugenol] | 724 µg/mL (≈ 2310 µM)
CC=Cc1ccc(OC(=O)c2ccc([N+](=O)[O-])cc2)c(OC)c1 [Compound 12, O-(4-nitrobenzoyl)isoeugenol] | 388 µg/mL (≈ 1240 µM)

Same assay, conditions: concentration 25 µg/mL

Compound | Antifeedant index (% AI)
CC1(C)C(C=C(Cl)Cl)C1C(=O)OC(C#N)c1cccc(Oc2ccccc2)c1 (centres unmarked) [Cypermethrin, cypermethrin, reference compound] | 49.2%
Isoeugenol [Compound 8] | 15.6%
C=CCc1ccc(O)c(OC)c1 [Compound 1, Eugenol] | 13.5%

Same assay, conditions: concentration 50 µg/mL

Compound | Antifeedant index (% AI)
CC1(C)C(C=C(Cl)Cl)C1C(=O)OC(C#N)c1cccc(Oc2ccccc2)c1 (centres unmarked) [Cypermethrin, cypermethrin, reference compound] | 56.0%
C=CCc1ccc(OC(C)=O)c(OC)c1 [Compound 6, acetyleugenol] | 17.8%
C/C=C/c1ccc(OC)c(OC)c1 [Compound 9, O-methylisoeugenol] | 20.5%
CCCc1ccc(O)c(OC)c1 [Compound 13, 2-methoxy-4-propylphenol] | 11.7%
Isoeugenol [Compound 8] | 37.3%
C=CCc1ccc(O)c(OC)c1 [Compound 1, Eugenol] | 32.3%
C=CCc1ccc(OC(=O)c2ccc([N+](=O)[O-])cc2)c(OC)c1 [Compound 7, O-(4-nitrobenzoyl)eugenol] | 23.8%
CC=Cc1ccc(OC(=O)c2ccc([N+](=O)[O-])cc2)c(OC)c1 [Compound 12, O-(4-nitrobenzoyl)isoeugenol] | 14.4%

Same assay, conditions: concentration 100 µg/mL

Compound | Antifeedant index (% AI)
CC1(C)C(C=C(Cl)Cl)C1C(=O)OC(C#N)c1cccc(Oc2ccccc2)c1 (centres unmarked) [Cypermethrin, cypermethrin, reference compound] | 61.0%
COc1cc(C2OCOCC2C)ccc1O (centres unmarked) [Compound 14, 2-methoxy-4-(5-methyl-1,3-dioxan-4-yl)-phenol] | 10.5%
C=CCc1ccc(OC(C)=O)c(OC)c1 [Compound 6, acetyleugenol] | 26.7%
C/C=C/c1ccc(OC)c(OC)c1 [Compound 9, O-methylisoeugenol] | 33.2%
CCCc1ccc(O)c(OC)c1 [Compound 13, 2-methoxy-4-propylphenol] | 26.7%
Isoeugenol [Compound 8] | 45.6%
C=CCc1ccc(O)c(OC)c1 [Compound 1, Eugenol] | 44.9%
C=CCc1ccc(OC(=O)c2ccc([N+](=O)[O-])cc2)c(OC)c1 [Compound 7, O-(4-nitrobenzoyl)eugenol] | 31.6%
CC=Cc1ccc(OC(=O)c2ccc([N+](=O)[O-])cc2)c(OC)c1 [Compound 12, O-(4-nitrobenzoyl)isoeugenol] | 30.2%

Same assay, conditions: concentration 250 µg/mL

Compound | Antifeedant index (% AI)
CC1(C)C(C=C(Cl)Cl)C1C(=O)OC(C#N)c1cccc(Oc2ccccc2)c1 (centres unmarked) [Cypermethrin, cypermethrin, reference compound] | 66.5%
COc1cc(C2OCOCC2C)ccc1O (centres unmarked) [Compound 14, 2-methoxy-4-(5-methyl-1,3-dioxan-4-yl)-phenol] | 20.0%
C=CCc1ccc(OC(C)=O)c(OC)c1 [Compound 6, acetyleugenol] | 36.6%
C/C=C/c1ccc(OC)c(OC)c1 [Compound 9, O-methylisoeugenol] | 40.1%
CCCc1ccc(O)c(OC)c1 [Compound 13, 2-methoxy-4-propylphenol] | 38.6%
Isoeugenol [Compound 8] | 56.6%
C=CCc1ccc(O)c(OC)c1 [Compound 1, Eugenol] | 55.3%
C=CCc1ccc(OC(=O)c2ccc([N+](=O)[O-])cc2)c(OC)c1 [Compound 7, O-(4-nitrobenzoyl)eugenol] | 39.4%
CC=Cc1ccc(OC(=O)c2ccc([N+](=O)[O-])cc2)c(OC)c1 [Compound 12, O-(4-nitrobenzoyl)isoeugenol] | 41.5%

Same assay, conditions: concentration 500 µg/mL

Compound | Antifeedant index (% AI)
CC1(C)C(C=C(Cl)Cl)C1C(=O)OC(C#N)c1cccc(Oc2ccccc2)c1 (centres unmarked) [Cypermethrin, cypermethrin, reference compound] | 72.7%
COc1cc(C2OCOCC2C)ccc1O (centres unmarked) [Compound 14, 2-methoxy-4-(5-methyl-1,3-dioxan-4-yl)-phenol] | 33.2%
C=CCc1ccc(OC(C)=O)c(OC)c1 [Compound 6, acetyleugenol] | 44.4%
C/C=C/c1ccc(OC)c(OC)c1 [Compound 9, O-methylisoeugenol] | 47.3%
CCCc1ccc(O)c(OC)c1 [Compound 13, 2-methoxy-4-propylphenol] | 65.0%
Isoeugenol [Compound 8] | 65.9%
C=CCc1ccc(O)c(OC)c1 [Compound 1, Eugenol] | 62.8%
C=CCc1ccc(OC(=O)c2ccc([N+](=O)[O-])cc2)c(OC)c1 [Compound 7, O-(4-nitrobenzoyl)eugenol] | 45.1%
CC=Cc1ccc(OC(=O)c2ccc([N+](=O)[O-])cc2)c(OC)c1 [Compound 12, O-(4-nitrobenzoyl)isoeugenol] | 52.8%

Same assay, conditions: concentration 1000 µg/mL

Compound | Antifeedant index (% AI)
CC1(C)C(C=C(Cl)Cl)C1C(=O)OC(C#N)c1cccc(Oc2ccccc2)c1 (centres unmarked) [Cypermethrin, cypermethrin, reference compound] | 77.9%
COc1cc(C2OCOCC2C)ccc1O (centres unmarked) [Compound 14, 2-methoxy-4-(5-methyl-1,3-dioxan-4-yl)-phenol] | 41.9%
C=CCc1ccc(OC(C)=O)c(OC)c1 [Compound 6, acetyleugenol] | 55.3%
C/C=C/c1ccc(OC)c(OC)c1 [Compound 9, O-methylisoeugenol] | 58.5%
CCCc1ccc(O)c(OC)c1 [Compound 13, 2-methoxy-4-propylphenol] | 72.9%
Isoeugenol [Compound 8] | 78.5%
C=CCc1ccc(O)c(OC)c1 [Compound 1, Eugenol] | 75.0%
C=CCc1ccc(OC(=O)c2ccc([N+](=O)[O-])cc2)c(OC)c1 [Compound 7, O-(4-nitrobenzoyl)eugenol] | 55.0%
CC=Cc1ccc(OC(=O)c2ccc([N+](=O)[O-])cc2)c(OC)c1 [Compound 12, O-(4-nitrobenzoyl)isoeugenol] | 66.9%

These compounds were tested on Spodoptera frugiperda larvae (assay: not given). Details: S. frugiperda larvae, topical application; 95% confidence limits in parentheses.
Type: in vivo

Compound | Insecticidal activity LD50 (mg/g of insect)
CCCc1ccc(O)c(OC)c1 [Compound 13, 2-methoxy-4-propylphenol] | 2.02 (1.87–2.17) mg/g of insect
CNC(=O)ON=C(C)SC [Methomyl, methomyl, reference compound] | 0.31 (0.29–0.33) mg/g of insect

Same assay, conditions: in vivo

Compound | Insecticidal activity LD50 (mg/g of insect)
C=CCc1ccc(OC(C)=O)c(OC)c1 [Compound 6, acetyleugenol] | 2.02 (1.87–2.14) mg/g of insect

These compounds were tested against electric-eel AChE (Electrophorus electricus, UniProt O42275) (assay: In vitro acetylcholinesterase inhibition). Details: not given.
Type: biochemical

Chain of electric-eel AChE (O42275 24-633): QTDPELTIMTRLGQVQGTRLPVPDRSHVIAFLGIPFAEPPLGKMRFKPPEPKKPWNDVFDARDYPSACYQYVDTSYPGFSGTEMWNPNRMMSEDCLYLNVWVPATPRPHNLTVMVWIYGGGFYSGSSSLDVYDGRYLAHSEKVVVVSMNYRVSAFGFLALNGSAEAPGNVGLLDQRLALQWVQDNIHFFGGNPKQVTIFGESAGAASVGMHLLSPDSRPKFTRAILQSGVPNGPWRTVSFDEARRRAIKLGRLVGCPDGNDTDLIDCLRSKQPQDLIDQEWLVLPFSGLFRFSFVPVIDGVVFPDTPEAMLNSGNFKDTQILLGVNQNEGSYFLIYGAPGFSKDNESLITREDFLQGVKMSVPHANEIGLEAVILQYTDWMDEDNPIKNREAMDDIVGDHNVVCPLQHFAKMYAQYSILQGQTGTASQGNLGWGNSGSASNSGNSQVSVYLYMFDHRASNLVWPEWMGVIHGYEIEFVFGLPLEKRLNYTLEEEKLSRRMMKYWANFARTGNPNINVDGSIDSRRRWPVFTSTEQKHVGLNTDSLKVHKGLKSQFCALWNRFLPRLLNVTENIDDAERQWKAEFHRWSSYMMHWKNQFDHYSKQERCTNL

Compound | IC50
COc1cc(C2OCOCC2C)ccc1O (centres unmarked) [Compound 14, 2-methoxy-4-(5-methyl-1,3-dioxan-4-yl)-phenol] | 168 µM
C=CCc1ccc(OC(C)=O)c(OC)c1 [Compound 6, acetyleugenol] | 184 µM
C/C=C/c1ccc(OC)c(OC)c1 [Compound 9, O-methylisoeugenol] | 151 µM
CCCc1ccc(O)c(OC)c1 [Compound 13, 2-methoxy-4-propylphenol] | 132 ± 2.77 µM
CNC(=O)ON=C(C)SC [Methomyl, methomyl, reference compound] | 1.91 µM
C=CCc1ccc(O)c(OC)c1 [Compound 1, Eugenol] | 180 µM
C=CCc1ccc(OC)c(OC)c1 [Compound 2, O-methyleugenol] | 157 µM
C=CCc1ccc(OC(=O)c2ccc([N+](=O)[O-])cc2)c(OC)c1 [Compound 7, O-(4-nitrobenzoyl)eugenol] | 314 µM
CC=Cc1ccc(OC(=O)c2ccc([N+](=O)[O-])cc2)c(OC)c1 [Compound 12, O-(4-nitrobenzoyl)isoeugenol] | 228 µM

What follows are compounds tested on Artemia salina larvae (assay: Brine shrimp lethality). Details: A. salina nauplii; 95% confidence limits in parentheses.

Compound | LC50 (µg/mL), toxicity in Artemia salina larvae test
CC1(C)C(C=C(Cl)Cl)C1C(=O)OC(C#N)c1cccc(Oc2ccccc2)c1 (centres unmarked) [Cypermethrin, cypermethrin, reference compound] | 404.2 (383.2–425.2) µg/mL
CNC(=O)ON=C(C)SC [Methomyl, methomyl, reference compound] | 205.2 (184.9–225.5) µg/mL
